According to paper PMC4753485, “Selective potentiation of 2-APB-induced activation of TRPV1–3 channels by acid” (Scientific Reports, 2016):
Several values for one entry are separate records, joined by “and”; a condition that tells them apart may be missing. Equal values may be shown once. Read-outs that look alike come from different tables or passages of the source. Each block holds one compound with its values, some of them ahead of it.

Assays:
mouse TRPV3 = molecular target: T1, mouse TRPV3 (Mus musculus, UniProt Q8K424); assay: Whole-cell recordings of TRPV3 currents in HEK293 cells; format: cell-based; settings: for EC50: EC50 of 2-APB-evoked TRPV3 whole-cell current, Vh −60 mV; for EC50 / Hill coefficient nH of 2-APB concentration-response: after full sensitization
T1 construct: Full-length cDNA for murine TRPV3 was isolated and subcloned into pIRES2-EGFP; expressed in transfected cells; host or cells: HEK293 (transient)
T1 sequence (Q8K424 1-791): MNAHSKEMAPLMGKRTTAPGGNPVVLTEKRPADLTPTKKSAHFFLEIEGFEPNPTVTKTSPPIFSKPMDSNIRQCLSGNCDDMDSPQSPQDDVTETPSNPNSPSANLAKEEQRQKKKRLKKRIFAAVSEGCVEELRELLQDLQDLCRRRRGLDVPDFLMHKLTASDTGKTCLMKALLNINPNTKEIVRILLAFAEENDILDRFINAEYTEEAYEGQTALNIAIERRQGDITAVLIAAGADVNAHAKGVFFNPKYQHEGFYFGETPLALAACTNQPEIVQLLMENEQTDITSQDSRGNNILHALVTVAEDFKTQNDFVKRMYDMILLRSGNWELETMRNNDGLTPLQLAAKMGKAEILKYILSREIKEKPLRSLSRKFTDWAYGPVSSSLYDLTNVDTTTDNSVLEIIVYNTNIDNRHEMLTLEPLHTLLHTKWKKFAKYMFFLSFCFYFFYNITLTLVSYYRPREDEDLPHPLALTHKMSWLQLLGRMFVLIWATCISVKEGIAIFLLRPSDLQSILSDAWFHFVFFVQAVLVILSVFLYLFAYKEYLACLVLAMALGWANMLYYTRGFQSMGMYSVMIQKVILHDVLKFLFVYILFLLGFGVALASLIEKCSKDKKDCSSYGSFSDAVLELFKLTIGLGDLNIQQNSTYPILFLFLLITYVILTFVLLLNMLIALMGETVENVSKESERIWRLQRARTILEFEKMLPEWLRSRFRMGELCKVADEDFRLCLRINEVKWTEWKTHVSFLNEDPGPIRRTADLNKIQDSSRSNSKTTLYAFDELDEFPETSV
Description: The resulting mutations were verified by DNA sequencing.
Whole-cell recordings were performed the following day. […] Camphor was purchased from Acros (New Jersey, USA).

TRPV3 [1] = molecular target: T2, TRPV3 (Mus musculus, UniProt Q8K424); settings: 32 °C
Source text: (§1) Full-length cDNA for murine TRPV3 was isolated and subcloned into pIRES2-EGFP, as previously described. The wild-type rat TRPV1, TRPV2 and TRPM8 cDNAs were generously provided by Dr. Feng Qin (State University of New York at Buffalo, Buffalo). All mutations were made using either QuikChange® XL site-directed mutagenesis kit (Agilent Technologies) or the overlap-extension polymerase chain reaction (PCR) method as previously described. The resulting mutations were verified by DNA sequencing. HEK293 cells were grown in DMEM containing 4.5 mg/ml glucose, 10% heat-inactivated fetal bovine serum, 50 units/ml penicillin, and 50 μg/ml streptomycin. For electrophysiological experiments, cells were seeded in 35 mm culture dishes and transfected with the desired DNA constructs using Lipofectamine 2000 (Invitrogen) following the protocol provided by the manufacturer. Stable TRPV3 expressing cells were selected in the G418-containing medium. For intracellular Ca^2+ measurements, cells were transfected with the desired DNA constructs in the wells of 96-well plates without pre-seeding using Lipofectamine 2000 (Invitrogen) as described.

TRPV3 [2] = molecular target: T2, TRPV3; assay: cell-based
Source text: as §1

[3] = 1H-NMR and mass spectrometry of compounds in solution; settings: 1H-NMR in PBS and mass spectrometry
Description: The solution NMR samples were prepared at the final concentration of 1 mM for the test compound in PBS at three different pH values (5.5, 7.4 and 8.5). […] One-dimensional (1D) ^1H NMR spectra were collected with 2-s delays using a standard Varian 1D watergate pulse sequence. Two-dimensional (2D) ^1H NMR TOCSY (mixing time 100 ms) and NOESY (mixing time 500 ms) spectra were collected using standard Varian TOCSY and NOESY pulse sequences. All spectra were processed using NMRPipe[45] with 1D ^1H spectra analyzed using ACD/NMR Processor (www.acdlabs.com) while 2D ^1H spectra analyzed using SPARKY[46]. In TOCSY, cross-peaks were potentially generated between all resonances within a spin system, while in NOESY, the integrated intensity of a given cross-peak was interpreted in terms of the distance between the two hydrogen atoms that gave rise to the peak.
The molecular mass was then measured by using positive and negative ion electrospray ionization mass spectrometry (ESI-MS, Thermo Fisher Scientific Inc., Waltham, MA).

[4] = no reference given; cited from earlier work
TRPM8 = TRPM8 (Rattus norvegicus, UniProt Q8R455); assay: cell-based; settings: for IC50: IC50 for inhibition of menthol-evoked TRPM8 current, 100 μM menthol
Source text: as §1
(§2) Transfected HEK293 cells were reseeded on 12 mm round glass coverslips (Warner Instruments) one day after transfection. Whole-cell recordings were performed the following day. Recording pipettes were pulled from borosilicate glass capillaries (Sutter or World Precision Instruments) to 2–4 MΩ when filled with internal solution containing (in mM) 140 CsCl, 2.0 MgCl2, 5 EGTA, 10 HEPES, pH 7.4. Bathing solution contained (in mM) 140 NaCl, 5 KCl, 5 EGTA, 1 MgCl2, 10 glucose and 10 HEPES, pH 7.4. Isolated cells were voltage clamped in the whole-cell mode using an EPC10 amplifier (HEKA Instruments Inc). Voltage commands were made from the Patchmaster program, and the currents were recorded at 5 kHz. […] Whole-cell recordings were typically sampled at 5 kHz and filtered at 1 kHz. The compensation of pipette series resistance and capacitance were taken by using the built-in circuitry of the amplifier (>80%) to reduce voltage errors. Exchange of external solutions was performed using a gravity-driven local perfusion system (Automate Scientific). Channel activators were diluted into the recording solution at the desired final concentrations and applied to the cell through perfusion. As determined by the conductance tests, the solution around a patch under study was fully controlled by the application of a solution with a flow rate of 100 μl/min or greater. […] The acidic solutions contained (in mM): 140 NaCl, 5 KCl, 5 EGTA, 1 MgCl2, 10 glucose, and 10 MES, with pH adjusted to desired values by NaOH. For inside-out recordings, both the pipette solution and bath solution contained (in mM) 140 NaCl, 5 KCl, 5 EGTA, 1 MgCl2, 10 HEPES, pH 7.4. Excised patches were held constantly at desired potentials while compounds were repetitively applied and washed from the bath. For recordings from HEK293 cells under acidic pH conditions, the solution also contained 50 μM amiloride as an inhibitor of the native ASIC channels. Camphor was purchased from Acros (New Jersey, USA). Diphenyl borate (DPB) was synthesized by Beijing Realchem Technology Company (Beijing, China). Other chemicals were purchased from Sigma (Sigma, St. Louis, MO). Water-insoluble reagents were dissolved in either 100% ethanol or DMSO to make stock solutions and were diluted in the bathing solution at appropriate concentrations before experiments. […] All experiments except those for heat activation were performed at room temperature (22–24 °C).

TRPV2 = TRPV2 (Rattus norvegicus, UniProt Q9WUD2); assay: cell-based; settings: for EC50: EC50 of 2-APB-evoked TRPV2 whole-cell current
Source text: as §1, §2

TRPV1 = molecular target: T3, TRPV1 (Rattus norvegicus, UniProt O35433); assay: Inside-out patch recordings from TRPV1-expressing HEK293 cells; format: cell-based; settings: +60 mV
T3 construct: expressed in transfected cells; host or cells: HEK293
Source text: as §1, with “For intracellular Ca^2+ measurements, cells were transfected with the desired DNA constructs in the wells of 96-well plates without pre-seeding using Lipofectamine 2000 (Invitrogen) as described.” left out
(§3) Transfected HEK293 cells were reseeded on 12 mm round glass coverslips (Warner Instruments) one day after transfection. […] Voltage commands were made from the Patchmaster program, and the currents were recorded at 5 kHz. […] As determined by the conductance tests, the solution around a patch under study was fully controlled by the application of a solution with a flow rate of 100 μl/min or greater. […]

TRPV1(E600Q/T633A) = molecular target: T4, TRPV1(E600Q/T633A) (Rattus norvegicus, UniProt O35433, E600Q/T633A); assay: Whole-cell recordings of TRPV1(E600Q/T633A) in HEK293 cells; format: cell-based; settings: −60 mV
T4 construct: expressed in transfected cells; host or cells: HEK293
Source text: as §1, with “For intracellular Ca^2+ measurements, cells were transfected with the desired DNA constructs in the wells of 96-well plates without pre-seeding using Lipofectamine 2000 (Invitrogen) as described.” left out
as §3

[5] = tested on: TRPV3 linker 2–3 mutants (L508R, D512N, S518V, A520S); settings: 100 μM 2-APB; whole-cell and inside-out; after sensitization with 500 μM 2-APB
Source text: as §1, with “For intracellular Ca^2+ measurements, cells were transfected with the desired DNA constructs in the wells of 96-well plates without pre-seeding using Lipofectamine 2000 (Invitrogen) as described.” left out
as §3

TRPV2, sequence (Q9WUD2 whole entry): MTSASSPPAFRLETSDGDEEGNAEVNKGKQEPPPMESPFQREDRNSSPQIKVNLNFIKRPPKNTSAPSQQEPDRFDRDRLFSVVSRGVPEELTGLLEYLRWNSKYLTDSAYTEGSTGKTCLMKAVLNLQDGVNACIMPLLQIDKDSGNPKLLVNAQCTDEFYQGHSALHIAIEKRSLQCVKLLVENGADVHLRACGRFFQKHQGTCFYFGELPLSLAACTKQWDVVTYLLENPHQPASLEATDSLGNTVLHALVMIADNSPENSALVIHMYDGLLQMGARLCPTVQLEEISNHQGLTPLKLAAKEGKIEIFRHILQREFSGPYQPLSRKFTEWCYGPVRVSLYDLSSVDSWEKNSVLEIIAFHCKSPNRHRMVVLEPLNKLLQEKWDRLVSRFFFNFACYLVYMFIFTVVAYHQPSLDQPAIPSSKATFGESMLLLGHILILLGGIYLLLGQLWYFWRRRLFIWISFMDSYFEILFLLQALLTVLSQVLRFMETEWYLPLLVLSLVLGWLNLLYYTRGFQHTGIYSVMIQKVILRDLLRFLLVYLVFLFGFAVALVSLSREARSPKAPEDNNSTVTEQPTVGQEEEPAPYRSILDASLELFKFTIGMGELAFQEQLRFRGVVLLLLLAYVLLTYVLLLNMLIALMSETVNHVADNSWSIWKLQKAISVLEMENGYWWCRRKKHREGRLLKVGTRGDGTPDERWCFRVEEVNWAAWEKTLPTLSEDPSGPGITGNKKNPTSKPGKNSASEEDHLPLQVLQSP
TRPM8, sequence (Q8R455 whole entry): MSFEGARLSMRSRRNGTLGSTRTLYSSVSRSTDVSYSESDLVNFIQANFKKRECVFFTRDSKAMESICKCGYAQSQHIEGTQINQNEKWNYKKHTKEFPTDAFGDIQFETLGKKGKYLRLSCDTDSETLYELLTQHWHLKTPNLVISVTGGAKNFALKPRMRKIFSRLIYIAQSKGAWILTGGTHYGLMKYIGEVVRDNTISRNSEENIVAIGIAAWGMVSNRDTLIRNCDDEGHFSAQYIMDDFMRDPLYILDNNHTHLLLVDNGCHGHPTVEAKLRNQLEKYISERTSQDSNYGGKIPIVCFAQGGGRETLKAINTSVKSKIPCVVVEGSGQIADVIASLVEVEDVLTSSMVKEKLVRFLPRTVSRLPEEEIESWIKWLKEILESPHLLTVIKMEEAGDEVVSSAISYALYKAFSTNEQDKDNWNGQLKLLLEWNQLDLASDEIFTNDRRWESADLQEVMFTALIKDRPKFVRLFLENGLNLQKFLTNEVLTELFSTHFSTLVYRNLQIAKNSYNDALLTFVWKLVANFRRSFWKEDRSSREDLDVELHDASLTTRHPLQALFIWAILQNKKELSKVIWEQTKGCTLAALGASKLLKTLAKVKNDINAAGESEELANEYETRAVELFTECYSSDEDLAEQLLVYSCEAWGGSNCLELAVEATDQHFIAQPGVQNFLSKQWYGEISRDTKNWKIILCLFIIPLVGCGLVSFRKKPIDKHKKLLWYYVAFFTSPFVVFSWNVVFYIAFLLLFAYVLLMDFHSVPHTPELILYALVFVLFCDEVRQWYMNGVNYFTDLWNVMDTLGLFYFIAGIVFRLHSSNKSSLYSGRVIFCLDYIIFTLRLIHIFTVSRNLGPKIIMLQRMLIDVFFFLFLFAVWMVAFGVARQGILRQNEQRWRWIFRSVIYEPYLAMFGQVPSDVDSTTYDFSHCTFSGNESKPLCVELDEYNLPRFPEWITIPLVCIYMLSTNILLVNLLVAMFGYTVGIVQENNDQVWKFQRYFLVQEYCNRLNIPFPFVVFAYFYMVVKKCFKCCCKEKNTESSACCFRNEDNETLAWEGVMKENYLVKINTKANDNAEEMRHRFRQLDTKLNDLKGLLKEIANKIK
T4 sequence (O35433 whole entry E600Q/T633A): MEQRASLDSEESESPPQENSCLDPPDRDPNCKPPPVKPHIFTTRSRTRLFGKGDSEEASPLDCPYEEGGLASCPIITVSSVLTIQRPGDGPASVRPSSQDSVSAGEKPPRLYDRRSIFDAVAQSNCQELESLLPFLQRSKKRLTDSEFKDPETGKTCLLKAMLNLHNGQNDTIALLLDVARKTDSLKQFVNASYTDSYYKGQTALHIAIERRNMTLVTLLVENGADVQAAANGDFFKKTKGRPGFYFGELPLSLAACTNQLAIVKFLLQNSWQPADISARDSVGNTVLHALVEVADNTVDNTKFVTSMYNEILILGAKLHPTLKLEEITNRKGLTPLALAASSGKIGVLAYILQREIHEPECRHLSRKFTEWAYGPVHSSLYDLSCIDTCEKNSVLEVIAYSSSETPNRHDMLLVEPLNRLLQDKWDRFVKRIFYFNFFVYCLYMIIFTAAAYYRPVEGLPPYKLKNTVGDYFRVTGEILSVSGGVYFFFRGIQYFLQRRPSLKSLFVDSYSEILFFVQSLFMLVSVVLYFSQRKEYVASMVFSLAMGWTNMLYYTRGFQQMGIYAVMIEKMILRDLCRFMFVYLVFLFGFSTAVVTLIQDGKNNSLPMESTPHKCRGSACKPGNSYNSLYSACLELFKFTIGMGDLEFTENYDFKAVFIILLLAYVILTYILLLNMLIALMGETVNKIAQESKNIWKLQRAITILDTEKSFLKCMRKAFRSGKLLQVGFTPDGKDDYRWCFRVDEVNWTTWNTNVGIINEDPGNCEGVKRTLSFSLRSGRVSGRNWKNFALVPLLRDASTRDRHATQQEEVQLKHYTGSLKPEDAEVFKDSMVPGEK
T3 sequence (O35433 whole entry): as the sequence (O35433 whole entry E600Q/T633A) above, with Q600E, A633T counted along it

Effect of reducing extracellular pH to 5.5 on Ca2+ response (TRPV3 [1]; 166 μM 2-APB): not further increased | Effect of reducing extracellular pH to 5.5 on Fluo-4 fluorescence intensity (TRPV3 [1]; low to moderate 2-APB concentrations (6–55 μM)): markedly enhanced | EC50 (TRPV3 [2]): 8.8 ± 1.5 µM | Drop of cytosolic pH (TRPV3 [2]; 300 μM 2-APB): ~ 0.35 pH unit | Stability in solution [3]: easily hydrolyzed to DPB | inhibition at 10 µM (TRPM8; HEK293, pH 5.5, read-out: Inhibition of menthol-evoked TRPM8 current): 84 ± 2% | inhibition at 10 µM (TRPM8; HEK293, pH 6, read-out: Inhibition of menthol-evoked TRPM8 current): 69 ± 3% | inhibition at 10 µM (TRPM8; HEK293, pH 7.4, read-out: Inhibition of menthol-evoked TRPM8 current): 24 ± 2% | IC50 (TRPM8; pH 5.5): 3.1 µM and 3.07 µM | IC50 (TRPM8; pH 7.4): 20.5 µM | Hill coefficient nH of inhibition curve (TRPM8; pH 5.5): 1.5 ± 0.1 and 1.49 ± 0.08 | Hill coefficient nH of inhibition curve (TRPM8; pH 7.4): 1.4 ± 0.3 and 1.41 ± 0.28 | EC50 (TRPV2; pH 5.5): 112 ± 1.2 µM | EC50 (TRPV2; pH 7.4): 522 ± 10.2 µM | Hill coefficient nH of 2-APB concentration-response (TRPV2; pH 5.5): 5.2 ± 0.3 and 5.26 ± 0.35 | Hill coefficient nH of 2-APB concentration-response (TRPV2; pH 7.4): 4.3 ± 0.3 and 4.34 ± 0.35 | Increase of peak current at pH 5.5 over pH 7.4, cytoplasmic side (TRPV1; 100 μM 2-APB): more than 2 fold | Effect of lowering extracellular pH to 5.5 on response (TRPV1(E600Q/T633A); 10 μM 2-APB): strongly enhanced
Compound: NCCOB(c1ccccc1)c1ccccc1 [2-APB, 2-aminoethoxydiphenyl borate]
Half-maximal pH of 2-APB-activated TRPV3 currents (mouse TRPV3; 10 μM 2-APB, pH 8.5 to 4.5, after sensitization with 100 μM 2-APB): 6.70 ± 0.02 | EC50 (mouse TRPV3; pH 5.5): 3.3 µM and 3.34 µM | EC50 (mouse TRPV3; pH 7.4): 36.2 ± 2.1 µM | Hill coefficient nH of 2-APB concentration-response (mouse TRPV3; pH 5.5): 2.0 ± 0.3 and 1.98 ± 0.34 | Hill coefficient nH of 2-APB concentration-response (mouse TRPV3; pH 7.4): 1.8 ± 0.2 and 1.76 ± 0.17 | pKa of the amino group [4]: 9.6 | Effect of low pH (5.5) on response to 2-APB in mutant channels [5]: greatly increased

Stability in solution [3]: easily hydrolyzed to DPB
Compound: c1ccc(B(OB(c2ccccc2)c2ccccc2)c2ccccc2)cc1 [DPBA, diphenylboronic anhydride]
Increase of evoked current by acid (pH 5.5) (mouse TRPV3; 5 μM DPBA, after sensitization with 30 μM DPBA): ~ 7 fold

Compound: OB(c1ccccc1)c1ccccc1 [DPB]
Increase of evoked current by acidic pH (5.5 versus 7.4) (mouse TRPV3; 10 μM DPB, after sensitization with 100 μM 2-APB): about 5 fold

Compound: OC(c1ccccc1)c1ccccc1 [DPM, diphenyl methanol]
TRPV3 current elicited (mouse TRPV3; pH 7.4 (30 or 500 μM) or pH 5.5 (30 μM only), after sensitization with 100 μM 2-APB): no detectable current

Compound: CC12CCC(CC1=O)C2(C)C (stereo not drawn) [camphor]
Effect of acid (pH 5.5) on evoked TRPV3 current (mouse TRPV3; 3 mM camphor, after sensitization with 100 μM 2-APB): slowed down the current development

Effect of intracellular acid (pH 5.5) on evoked current (TRPV1; 0.1 μM capsaicin): did not enhance | Decrease of elicited current by lowering extracellular pH to 5.5 (TRPV1(E600Q/T633A); 0.01 μM capsaicin): nearly one-half
Compound: COc1cc(CNC(=O)CCCC/C=C/C(C)C)ccc1O [capsaicin]

Compound: CC1CCC(C(C)C)C(O)C1 (stereo not drawn) [menthol]
inhibition at 1000 µM (mouse TRPV3; HEK293, pH 5.5, read-out: Inhibition of evoked TRPV3 current by acid (pH 5.5)): ~48%
